Literature values as cited in patent US20010026813A1, “Extract from scutellariae radix having neuroprotective effects and pharmaceutical preparations containing the same” (priority 2000, published 2001).
Like-named read-outs stand apart in the source and are kept apart here.

System: 4-VO models

| Structure (SMILES) | defensive level (dose not given) | also measured |
| --- | --- | --- |
| OC(CN1CCC(Cc2ccc(F)cc2)CC1)c1ccc(Cl)cc1 (stereo not drawn) [eliprodil] | – | defensive level (20 mg/kg, i.p.): 25% |
| CNC(=O)N1N=C(c2ccc(N)cc2)c2cc3c(cc2CC1C)OCO3 (stereo not drawn) [LY300168] | 23% | – |
| O=[N+]([O-])c1cccc2cn[nH]c12 [Example 7-NI] | 17.5% | – |
| C[C@]12N[C@H](Cc3ccccc31)c1ccccc12 [MK-801] | – | defensive level (2 mg/kg, i.p.): 24% |
| CCNCc1cc(C(C)(C)C)c(O)c(C(C)(C)C)c1 [LY231617] | 25-30% | – |
| COC(=O)[C@@H](N)CCCNC(=N)N[N+](=O)[O-] [L-NAME] | 23% | – |
| O=[N+]([O-])c1cccc2c(Br)n[nH]c12 [3-bromo-7-nitroindazole] | 20% | – |
| NS(=O)(=O)c1cccc2c1c([N+](=O)[O-])cc1nc(O)c(O)nc12 [NBQX] | – | defensive level (30 mg/kg, i.p.): 42% |
| CC1=NN=C(c2ccc(N)cc2)c2cc3c(cc2C1)OCO3 [GYK152466] | 11% | – |
